From ChEMBL document CHEMBL1153555, “Molecular mechanism of target recognition by subtilin, a class I lanthionine antibiotic” (Antimicrob Agents Chemother, 2008) come the findings set out here.

Broadly, the MIC is the lowest concentration that inhibits growth of the organism.

The subject of one data set is Lactococcus lactis. The data set can be described thus: Antibacterial activity against Lactococcus lactis MG1614 by disk diffusion assay. The class given is functional. (In general: A growth-free zone around the sample is the usual read-out of agar diffusion tests.)
A short description of data set [1]: Permeability across Micrococcus luteus ATCC 4698 lipid II-containing unilamellar vesicle of 1,2-dioleoyl-sn-gltcero-3-phosphocholine and 1,2-dioleoyl-sn-glycero-3-phosphoglycerol assessed as partial leakage after disintegration of vesicles at lower concentration by carboxyfluorescein leakage assay. The class given is ADME.

In brackets after ≈: the same amount, converted by molar mass.

`C=C1NC(=O)[C@H](CCC(=O)O)NC(=O)[C@H](NC(=O)[C@@H](N)CCCCN)CSC[C@@H](C(=O)N[C@H]2C(=O)N3CCC[C@H]3C(=O)NCC(=O)N[C@H](C(=O)N[C@H](C(=O)N[C@H]3C(=O)NCC(=O)N[C@@H](C)C(=O)N[C@@H](CC(C)C)C(=O)N[C@@H](CCC(N)=O)C(=O)N/C(=C\C)C(=O)N[C@H](C(=O)N[C@@H](Cc4ccccc4)C(=O)N[C@@H](CC(C)C)C(=O)N[C@@H](CCC(N)=O)C(=O)N[C@H]4C(=O)N[C@@H](CC(C)C)C(=O)N[C@H]5C(=O)N[C@@H](CS[C@H]4C)C(=O)N[C@@H](CC(N)=O)C(=O)N[C@H](C(=O)N[C@@H](CCCCN)C(=O)O)CS[C@H]5C)CS[C@H]3C)C(C)C)CS[C@H]2C)NC(=O)[C@H](CC(C)C)NC1=O`: in the data set on Lactococcus lactis, the MIC was more than 50 µg/mL. Molecule `C=C1NC(=O)CC[C@@H](C(=O)O)NC(=O)[C@H](NC(=O)[C@H](CCCCN)NC(=O)[C@@H](N)Cc2c[nH]c3ccccc23)CSC[C@@H](C(=O)N[C@@H]2C(=O)N3CCC[C@H]3C(=O)NCC(=O)N[C@H](C(=O)N[C@H](C(=O)N[C@@H]3C(=O)NCC(=O)N[C@@H](C)C(=O)N[C@@H](CC(C)C)C(=O)N[C@@H](CCC(N)=O)C(=O)N/C(=C/C)C(=O)N[C@H](C(=O)N[C@@H](Cc4ccccc4)C(=O)N[C@@H](CC(C)C)C(=O)N[C@@H](CCC(N)=O)C(=O)N[C@@H]4C(=O)N[C@@H](CC(C)C)C(=O)N[C@H]5C(=O)N[C@@H](CSC4C)C(=O)NC(=O)[C@H](CC(N)=O)N[C@H](C(=O)N[C@@H](CCCCN)C(=O)O)CSC5C)CSC3C)C(C)C)CSC2C)N[C@@H](CC(C)C)C(=O)NC1=O` (stereo not given in full) yielded an MIC in the data set on Lactococcus lactis of 11.5 µg/mL (≈ 3.82 µM). For the molecule `C=C(NC(=O)[C@@H](NC(=O)[C@H](CCCCN)NC(=O)[C@@H]1CS[C@@H](C)[C@H]2NC(=O)[C@H](CC(C)C)NC(=O)[C@H](NC(=O)[C@H](CCC(N)=O)NC(=O)[C@H](CC(C)C)NC(=O)[C@H](Cc3ccccc3)NC(=O)[C@@H]3CS[C@@H](C)[C@@H](NC(=O)[C@@H](NC(=O)[C@@H]4CS[C@@H](C)[C@@H](NC(=O)[C@@H]5CSC[C@@H](NC(=O)[C@H](CCCCN)NC(=O)[C@H](Cc6c[nH]c7ccccc67)NC(=O)CCC(=O)O)C(=O)N[C@@H](CCC(=O)O)C(=O)NC(=C)C(=O)N[C@@H](CC(C)C)C(=O)N5)C(=O)N5CCC[C@H]5C(=O)NCC(=O)N4)C(C)C)C(=O)NCC(=O)N[C@@H](C)C(=O)N[C@@H](CC(C)C)C(=O)N[C@@H](CCC(N)=O)C(=O)N/C(=C\C)C(=O)N3)[C@H](C)SC[C@H](NC2=O)C(=O)N[C@@H](CC(N)=O)C(=O)N1)[C@@H](C)CC)C(=O)N[C@@H](CCCCN)C(=O)O`, the MIC against Lactococcus lactis was determined as 19.2 µg/mL (≈ 5.6 µM). As to `C=C(NC(=O)[C@@H](NC(=O)[C@H](CCCCN)NC(=O)[C@@H]1CS[C@@H](C)[C@H]2NC(=O)[C@H](CC(C)C)NC(=O)[C@H](NC(=O)[C@H](CCC(N)=O)NC(=O)[C@H](CC(C)C)NC(=O)[C@H](Cc3ccccc3)NC(=O)[C@@H]3CS[C@@H](C)[C@@H](NC(=O)[C@@H](NC(=O)[C@@H]4CS[C@@H](C)[C@@H](NC(=O)[C@@H]5CSC[C@@H](NC(=O)[C@H](CCCCN)NC(=O)[C@@H](N)Cc6c[nH]c7ccccc67)C(=O)N[C@@H](CCC(=O)O)C(=O)NC(=C)C(=O)N[C@@H](CC(C)C)C(=O)N5)C(=O)N5CCC[C@H]5C(=O)NCC(=O)N4)C(C)C)C(=O)NCC(=O)N[C@@H](C)C(=O)N[C@@H](CC(C)C)C(=O)N[C@@H](CCC(N)=O)C(=O)N/C(=C\C)C(=O)N3)[C@H](C)SC[C@H](NC2=O)C(=O)N[C@@H](CC(N)=O)C(=O)N1)[C@@H](C)CC)C(=O)N[C@@H](CCCCN)C(=O)O` [SUBTILIN], in data set [1], the permeability was 20%. Consider `C=C1NC(=O)CC[C@@H](C(=O)O)NC(=O)[C@H](NC(=O)[C@H](CCCCN)NC(=O)[C@@H](N)Cc2c[nH]c3ccccc23)CSC[C@@H](C(=O)N[C@@H]2C(=O)N3CCC[C@H]3C(=O)NCC(=O)N[C@H](C(=O)N[C@H](C(=O)N[C@@H]3C(=O)NCC(=O)N[C@@H](C)C(=O)N[C@@H](CC(C)C)C(=O)N[C@@H](CCC(N)=O)C(=O)N/C(=C/C)C(=O)N[C@H](C(=O)N[C@@H](Cc4ccccc4)C(=O)N[C@@H](CC(C)C)C(=O)N[C@@H](CCC(N)=O)C(=O)N[C@@H]4C(=O)N[C@@H](CC(C)C)C(=O)N[C@H]5C(=O)N[C@@H](CSC4C)C(=O)NC(=O)[C@H](CC(N)=O)N[C@H](C(=O)N[C@@H](CCCCN)C(=O)N[C@H](C(=O)NC(=C)C(=O)N[C@@H](CCCCN)C(=O)O)[C@@H](C)CC)CSC5C)CSC3C)C(C)C)CSC2C)N[C@@H](CC(C)C)C(=O)NC1=O` (stereo not given in full) [SUBTILIN], for which inhibition of growth in the data set with Lactococcus lactis (MIC) required 1.13 µg/mL (≈ 0.34 µM).
